We go through 7 compounds from ChEMBL document CHEMBL1201862, “PubChem BioAssay data set” (2004).

One assay concerns INS1. The assay can be described thus: beta cell apoptosis inhibitors, cytokine rescue, dose response, luminescence, retest (AID 449756).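 Further: cell death triggered by IL-1 beta plus TNF-alpha plus IFN-gamma mixture; protective hits raise ATP signal compared with cytokine alone wells.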 The class given is functional, cell-based. As to conditions: Rattus norvegicus.
In another assay the target is T1, Protein RecA (Mycobacterium tuberculosis, UniProt P9WHJ3).
T1 sequence (P9WHJ3 whole entry): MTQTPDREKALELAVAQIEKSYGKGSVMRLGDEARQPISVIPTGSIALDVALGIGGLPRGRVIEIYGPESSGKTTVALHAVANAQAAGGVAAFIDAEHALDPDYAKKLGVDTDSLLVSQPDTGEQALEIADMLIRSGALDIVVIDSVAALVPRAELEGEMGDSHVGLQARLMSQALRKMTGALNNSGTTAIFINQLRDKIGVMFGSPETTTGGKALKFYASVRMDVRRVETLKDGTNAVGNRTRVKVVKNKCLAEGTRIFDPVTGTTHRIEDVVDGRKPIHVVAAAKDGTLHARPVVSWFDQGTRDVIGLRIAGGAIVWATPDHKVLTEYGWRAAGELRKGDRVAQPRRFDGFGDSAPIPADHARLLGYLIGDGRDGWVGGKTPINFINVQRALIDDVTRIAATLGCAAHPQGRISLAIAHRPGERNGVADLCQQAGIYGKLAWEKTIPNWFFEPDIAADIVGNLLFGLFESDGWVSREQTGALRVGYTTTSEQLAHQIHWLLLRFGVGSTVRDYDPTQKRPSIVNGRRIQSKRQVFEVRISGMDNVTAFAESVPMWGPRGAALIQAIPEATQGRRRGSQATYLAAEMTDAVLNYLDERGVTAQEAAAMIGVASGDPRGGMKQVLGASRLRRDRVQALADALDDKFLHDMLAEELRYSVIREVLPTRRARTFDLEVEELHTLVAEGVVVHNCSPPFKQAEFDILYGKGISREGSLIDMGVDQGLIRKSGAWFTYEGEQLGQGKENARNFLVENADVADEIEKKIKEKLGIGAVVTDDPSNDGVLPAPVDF
The assay is described as follows: Fluorescence Cell-Free Homogeneous Dose Retest to Identify Inhibitors of RecA-Intein Splicing Activity. [Related pubchem assays (depositor defined):AID2097, AID2223, AID489010, AID492950]. It counts as functional.

Assay [1] addresses T2, Sentrin-specific protease 7 (Homo sapiens, UniProt Q9BQF6).
T2 sequence (Q9BQF6 whole entry): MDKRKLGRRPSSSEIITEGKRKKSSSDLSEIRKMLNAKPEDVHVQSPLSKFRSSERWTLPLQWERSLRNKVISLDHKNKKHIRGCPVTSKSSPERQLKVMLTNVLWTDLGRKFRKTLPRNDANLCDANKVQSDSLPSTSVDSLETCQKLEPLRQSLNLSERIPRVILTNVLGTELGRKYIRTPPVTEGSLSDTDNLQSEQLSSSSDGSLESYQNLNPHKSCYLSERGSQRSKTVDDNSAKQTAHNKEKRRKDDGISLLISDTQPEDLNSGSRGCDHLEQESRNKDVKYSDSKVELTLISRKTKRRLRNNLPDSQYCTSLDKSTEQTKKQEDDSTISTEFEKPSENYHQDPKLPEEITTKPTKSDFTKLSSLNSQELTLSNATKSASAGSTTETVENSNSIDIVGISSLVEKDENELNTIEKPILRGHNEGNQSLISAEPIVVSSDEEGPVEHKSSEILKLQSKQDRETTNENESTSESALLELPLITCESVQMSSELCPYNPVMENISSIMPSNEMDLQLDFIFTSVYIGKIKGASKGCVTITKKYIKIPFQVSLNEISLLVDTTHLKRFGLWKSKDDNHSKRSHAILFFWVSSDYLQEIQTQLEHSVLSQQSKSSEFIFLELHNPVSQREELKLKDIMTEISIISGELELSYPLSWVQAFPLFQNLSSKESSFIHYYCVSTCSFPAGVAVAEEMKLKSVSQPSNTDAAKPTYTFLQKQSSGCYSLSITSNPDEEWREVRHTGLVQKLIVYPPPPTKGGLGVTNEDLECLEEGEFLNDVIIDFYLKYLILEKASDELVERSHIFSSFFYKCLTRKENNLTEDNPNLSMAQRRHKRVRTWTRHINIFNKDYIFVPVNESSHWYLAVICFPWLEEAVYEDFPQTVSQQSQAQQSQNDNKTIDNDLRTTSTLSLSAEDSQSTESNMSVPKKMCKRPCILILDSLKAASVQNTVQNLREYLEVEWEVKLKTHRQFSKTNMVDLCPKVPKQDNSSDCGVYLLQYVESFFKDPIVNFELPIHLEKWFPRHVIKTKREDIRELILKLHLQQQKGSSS
The assay is described as follows: SENP7 protease inhibitors, SAR follow-up, biochemical, luminescence (AID 504497). The class given is functional.

Assay [2] has as its target Tyrosine-protein kinase JAK2 (Homo sapiens, UniProt O60674). It counts as functional.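 Further: JAK2 tested as one member of a kinase panel.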
Assay [3] deals with Mitogen-activated protein kinase 8 (Homo sapiens, UniProt P45983). The class given is functional.
The target of assay [4] is Insulin-like growth factor 1 receptor (Homo sapiens, UniProt P08069). The assay can be described thus: Navigating the Kinome. Panel member name: IGF1R. The class given is functional.
The target of assay [5] is Rho-associated protein kinase 1 (Homo sapiens, UniProt Q13464). The class given is functional.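 Further: measured within a broad kinome-wide panel profiling many kinases.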

Each structure is given as a SMILES string. Active and inactive are the calls of the source.

Sequence of Insulin-like growth factor 1 receptor (P08069 31-736 limits assumed): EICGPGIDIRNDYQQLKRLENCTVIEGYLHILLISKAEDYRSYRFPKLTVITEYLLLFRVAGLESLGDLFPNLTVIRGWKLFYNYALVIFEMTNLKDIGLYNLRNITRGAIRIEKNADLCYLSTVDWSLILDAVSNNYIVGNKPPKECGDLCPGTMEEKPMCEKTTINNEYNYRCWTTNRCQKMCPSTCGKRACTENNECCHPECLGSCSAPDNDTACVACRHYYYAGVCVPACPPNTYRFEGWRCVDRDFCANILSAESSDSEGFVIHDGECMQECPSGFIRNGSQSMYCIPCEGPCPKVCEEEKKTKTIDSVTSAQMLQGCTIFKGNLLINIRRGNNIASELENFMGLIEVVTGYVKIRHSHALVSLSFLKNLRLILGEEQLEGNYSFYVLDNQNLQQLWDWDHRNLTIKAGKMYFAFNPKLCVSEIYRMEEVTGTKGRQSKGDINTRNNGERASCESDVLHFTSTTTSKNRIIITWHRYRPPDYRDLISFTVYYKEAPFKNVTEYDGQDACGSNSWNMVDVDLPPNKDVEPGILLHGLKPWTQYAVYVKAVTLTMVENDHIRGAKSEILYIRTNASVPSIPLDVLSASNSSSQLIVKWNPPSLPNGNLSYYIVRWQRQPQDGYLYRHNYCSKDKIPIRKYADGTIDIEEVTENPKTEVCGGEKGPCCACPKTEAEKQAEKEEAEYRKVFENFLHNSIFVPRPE
Sequence of Insulin-like growth factor 1 receptor (P08069 741-1367 limits assumed): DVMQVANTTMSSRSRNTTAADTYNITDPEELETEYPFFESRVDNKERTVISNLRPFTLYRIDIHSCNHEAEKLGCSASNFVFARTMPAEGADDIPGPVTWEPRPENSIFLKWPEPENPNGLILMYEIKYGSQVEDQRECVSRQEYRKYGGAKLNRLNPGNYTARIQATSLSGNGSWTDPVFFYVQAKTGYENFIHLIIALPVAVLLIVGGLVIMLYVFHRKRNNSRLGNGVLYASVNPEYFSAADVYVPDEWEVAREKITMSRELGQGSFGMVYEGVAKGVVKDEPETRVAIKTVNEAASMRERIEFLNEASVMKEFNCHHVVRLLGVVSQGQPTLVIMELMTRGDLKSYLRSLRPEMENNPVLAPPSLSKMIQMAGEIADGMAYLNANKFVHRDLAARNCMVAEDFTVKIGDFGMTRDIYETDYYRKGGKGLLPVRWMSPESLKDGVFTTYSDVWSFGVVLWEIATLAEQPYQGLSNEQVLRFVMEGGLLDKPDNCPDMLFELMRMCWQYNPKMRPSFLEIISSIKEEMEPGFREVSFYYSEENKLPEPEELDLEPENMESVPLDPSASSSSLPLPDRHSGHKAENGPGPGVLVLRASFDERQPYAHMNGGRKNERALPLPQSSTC
Sequence of Mitogen-activated protein kinase 8 (P45983 whole entry): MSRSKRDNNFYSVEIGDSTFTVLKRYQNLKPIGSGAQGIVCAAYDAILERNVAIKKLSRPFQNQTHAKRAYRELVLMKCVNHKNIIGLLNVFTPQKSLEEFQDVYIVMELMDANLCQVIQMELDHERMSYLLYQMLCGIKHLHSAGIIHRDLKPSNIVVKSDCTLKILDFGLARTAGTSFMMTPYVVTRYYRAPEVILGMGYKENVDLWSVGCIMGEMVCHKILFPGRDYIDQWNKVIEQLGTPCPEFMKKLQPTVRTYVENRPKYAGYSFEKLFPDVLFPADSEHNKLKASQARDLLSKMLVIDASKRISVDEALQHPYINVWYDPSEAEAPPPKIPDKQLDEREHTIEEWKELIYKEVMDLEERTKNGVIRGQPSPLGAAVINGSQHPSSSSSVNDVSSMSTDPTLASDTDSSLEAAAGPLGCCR
Sequence of Tyrosine-protein kinase JAK2 (O60674 whole entry): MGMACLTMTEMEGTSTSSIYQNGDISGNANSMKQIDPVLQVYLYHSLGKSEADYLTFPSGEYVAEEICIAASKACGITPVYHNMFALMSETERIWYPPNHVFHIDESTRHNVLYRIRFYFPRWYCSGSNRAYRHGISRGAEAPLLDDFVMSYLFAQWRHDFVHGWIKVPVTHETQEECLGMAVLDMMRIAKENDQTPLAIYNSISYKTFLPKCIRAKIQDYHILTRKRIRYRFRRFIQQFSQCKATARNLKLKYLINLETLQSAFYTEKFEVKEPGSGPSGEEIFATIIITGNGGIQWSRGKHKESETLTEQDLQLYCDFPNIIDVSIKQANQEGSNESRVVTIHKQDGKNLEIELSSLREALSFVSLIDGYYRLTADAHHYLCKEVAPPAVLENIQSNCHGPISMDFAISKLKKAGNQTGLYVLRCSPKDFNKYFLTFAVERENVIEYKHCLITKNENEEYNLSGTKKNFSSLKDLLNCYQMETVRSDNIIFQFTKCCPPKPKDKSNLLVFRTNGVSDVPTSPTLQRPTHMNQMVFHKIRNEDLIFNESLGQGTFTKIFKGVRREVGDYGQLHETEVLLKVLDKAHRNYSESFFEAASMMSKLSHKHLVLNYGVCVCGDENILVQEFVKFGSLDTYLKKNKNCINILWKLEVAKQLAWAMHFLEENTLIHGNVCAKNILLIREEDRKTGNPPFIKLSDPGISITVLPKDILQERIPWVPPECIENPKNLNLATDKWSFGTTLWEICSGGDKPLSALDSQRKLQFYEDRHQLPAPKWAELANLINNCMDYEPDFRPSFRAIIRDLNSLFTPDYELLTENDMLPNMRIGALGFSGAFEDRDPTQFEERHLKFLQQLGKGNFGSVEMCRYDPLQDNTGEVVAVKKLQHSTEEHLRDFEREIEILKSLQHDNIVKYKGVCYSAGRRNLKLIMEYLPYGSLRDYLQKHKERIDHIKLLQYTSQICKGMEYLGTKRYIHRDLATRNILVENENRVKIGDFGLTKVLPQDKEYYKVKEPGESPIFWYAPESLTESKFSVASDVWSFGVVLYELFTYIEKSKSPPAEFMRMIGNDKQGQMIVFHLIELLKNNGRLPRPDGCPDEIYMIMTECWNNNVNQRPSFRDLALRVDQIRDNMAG
Sequence of Rho-associated protein kinase 1 (Q13464 whole entry): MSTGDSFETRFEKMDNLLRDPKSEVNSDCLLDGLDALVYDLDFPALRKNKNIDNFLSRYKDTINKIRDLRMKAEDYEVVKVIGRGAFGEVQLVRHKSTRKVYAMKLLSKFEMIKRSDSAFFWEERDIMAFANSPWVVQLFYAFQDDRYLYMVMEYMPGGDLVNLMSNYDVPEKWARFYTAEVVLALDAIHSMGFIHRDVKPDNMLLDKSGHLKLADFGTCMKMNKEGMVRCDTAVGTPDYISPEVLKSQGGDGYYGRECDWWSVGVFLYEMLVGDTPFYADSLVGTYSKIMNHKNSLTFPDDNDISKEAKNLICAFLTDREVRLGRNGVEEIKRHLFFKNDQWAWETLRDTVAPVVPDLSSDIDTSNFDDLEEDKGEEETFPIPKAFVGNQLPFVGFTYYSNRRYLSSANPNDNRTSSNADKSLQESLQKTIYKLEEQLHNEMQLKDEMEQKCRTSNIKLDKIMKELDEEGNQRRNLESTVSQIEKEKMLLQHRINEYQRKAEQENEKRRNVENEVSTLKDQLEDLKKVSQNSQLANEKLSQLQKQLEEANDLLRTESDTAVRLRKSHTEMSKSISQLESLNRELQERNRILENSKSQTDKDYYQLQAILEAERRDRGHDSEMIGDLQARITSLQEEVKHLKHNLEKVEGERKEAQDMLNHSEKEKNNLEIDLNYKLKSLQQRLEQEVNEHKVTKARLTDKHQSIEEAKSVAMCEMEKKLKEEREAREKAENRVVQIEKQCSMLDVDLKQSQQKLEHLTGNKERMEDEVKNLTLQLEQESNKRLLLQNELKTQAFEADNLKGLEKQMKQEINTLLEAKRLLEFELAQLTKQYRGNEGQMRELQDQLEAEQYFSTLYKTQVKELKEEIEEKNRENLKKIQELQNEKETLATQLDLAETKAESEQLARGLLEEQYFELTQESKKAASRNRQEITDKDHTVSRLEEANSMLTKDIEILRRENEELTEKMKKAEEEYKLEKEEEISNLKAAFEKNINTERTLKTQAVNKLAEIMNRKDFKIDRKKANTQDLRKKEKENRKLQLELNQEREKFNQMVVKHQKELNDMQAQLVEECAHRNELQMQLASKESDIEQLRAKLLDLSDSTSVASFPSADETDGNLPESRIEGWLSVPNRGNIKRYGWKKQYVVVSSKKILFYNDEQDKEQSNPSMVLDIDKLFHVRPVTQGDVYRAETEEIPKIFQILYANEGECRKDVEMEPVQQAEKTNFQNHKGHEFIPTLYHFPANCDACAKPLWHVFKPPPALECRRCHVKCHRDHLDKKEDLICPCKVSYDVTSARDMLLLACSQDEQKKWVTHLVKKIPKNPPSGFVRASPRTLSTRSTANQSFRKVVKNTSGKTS

`CCN(CC)CCOc1ccc2c(c1)C(=NNC(=O)c1ccccn1)c1cc(OCCN(CC)CC)ccc1-2`: in the assay with INS1, the AC50 (commonly the midpoint of the concentration-response curve, whichever way the signal moves) was 2.97 µM (active).
On to `O=C(NC1=C(Nc2ccc(F)cc2)C(=O)c2ccccc2C1=O)c1ccc(Cl)cc1`, for which the EC50 (in general, the midpoint of the concentration-response curve) on Protein RecA was 25.9 µM (inconclusive). In addition, the AC50 in the assay with INS1 is 5.26 µM (active).
As to `COc1cc2cc(NC(C)=O)cc(NCc3ccccc3)c2cc1OC`, in assay [1], the IC50 (commonly the concentration that gives 50% inhibition) is 67.6 µM (active).
As to `Oc1nc(Nc2ccc(F)cc2)cc2ccccc12`, on Protein RecA, the concentration for a half-maximal effect (EC50) was 1.21 µM (active).
On to `CN(C)c1cc(N/N=C\c2ccccc2)nc(N(C)C)n1`, for which, in assay [1], the IC50 is 16.2 µM (active).
Consider `O=C1Nc2cc(-c3ccc(O)cc3)ccc2C1=Cc1ccc[nH]1`, for which the Ki (in general, a measure of affinity in units of concentration, obtained from inhibition or displacement) in assay [2] was 0.00501 µM (active); in assay [3] it was > 5.01 µM (inactive); in assay [4] it was > 2.51 µM (inactive); in assay [5] it was > 3.98 µM (inactive).
For `NC(COc1cncc(-c2ccc3c(c2)C(=Cc2ccc[nH]2)C(=O)N3)c1)Cc1ccccc1` (centres undefined), in that order: 0.0631 µM (active), 1.26 µM (active), 1 µM (active) and 0.00398 µM (active).
